According to US20250283887A1, “FLUORESCENT-PROBE SOLUTION” (GORYO CHEMICAL, INC., priority 2022, published 2025):

How the values were obtained:
[1] = Storage stability of Tween 80-containing fluorescent-probe solutions of Test Examples 13 to 15 in sealed glass vials (HPLC purity); assay type: physicochemical; conditions: vial stored at 25°C in the dark for 85 days; converted to 3 years (FIG. 4); DMSO 10-50 v/v % with Tween 80
Protocol: (§1) HPLC analysis was performed under the following conditions through use of a liquid chromatography system (UltiMate 3000, Thermo Fisher Scientific Inc.), and the ratio of the peak area of HMRef-αMan with respect to the entire peak area was calculated as a purity. • Column: Meteoric core C8, 5 μm, 4.6×150 mm (YMC Co., Ltd.) • Column temperature: 25° C. • Mobile phase A: water/TFA (1,000:1) • Mobile phase B: acetonitrile/TFA (1,000:1) • Liquid-feeding amount: 1.0 mL/min. • Wavelength: 254 nm • Liquid feeding to mobile phase: The liquid was fed under the conditions shown in the following table.
A glass vial was filled with the fluorescent-probe solution obtained in each of Test Examples 13 to 15, and sealed with a rubber stopper. The vial filled with each of the fluorescent-probe solutions was stored at 25° C. in the dark for 85 days, and analysis was performed by liquid chromatography.
In the same manner as in Test Examples 1 to 11, the purity of HMRef-αMan and the content of the oxidized form thereof in each of the fluorescent-probe solutions within 12 hours after preparation, and those in each of the fluorescent-probe solutions after storage for 85 days in the vials were measured, and the reduction amount of the purity and the increase amount of the oxidized form in 3 years were calculated as converted values. […]

[2] = Storage stability of fluorescent-probe solutions of Test Examples 1 to 11 in sealed glass vials (HPLC purity); assay type: physicochemical
Protocol: A 25 mL glass vial (manufactured by Daiwa Special Glass Co., Ltd.) was filled with 0.125 mL to 0.312 mL of the fluorescent-probe solution obtained in each of Test Examples 1 to 11, and the opening of the glass vial was plugged with a rubber stopper (No. 20-T manufactured by Maruemu Corporation), and then tightly sealed with an aluminum cap over the rubber stopper. The vial filled with each of the fluorescent-probe solutions was stored at 25° C. or 50° C. in the dark for from 25 days to 32 days.
The purity of HMRef-αMan in each of the fluorescent-probe solutions within 12 hours after preparation, and that in each of the fluorescent-probe solutions after storage for from 25 days to 32 days in the vials were measured as described below, and the difference between the purities (the former−the latter) was divided by the number of storage days. Thus, the reduction amount of the purity per day was calculated. In addition, the reduction amount of the purity (converted value) in storage (3 years) at room temperature or in storage (1 year) at 50° C. was calculated from the reduction amount of the purity per day. All the purities of HMRef-αMan within 12 hours after the preparation of the fluorescent-probe solutions obtained in Test Examples 1 to 11 were 99% or more.
as §1, with “table. […]” for “table.”

OC[C@H]1O[C@H](Cc2ccc3c(c2)Oc2cc(NCC(F)(F)F)ccc2C32OCc3ccccc32)[C@@H](O)[C@@H](O)[C@@H]1O (stereo partly shown) [HMRef-αMan]
reduction in purity of HMRef-αMan during storage [1]: suppressed even when the content of the organic solvent is reduced by adding the solubilizer
main analog observed after storage (mass spectrometry of resolved HPLC peak) ([2]; after storage for 25 to 32 days in the vials): an analog (oxidized form) in which two hydrogen atoms were lost from HMRef-αMan was observed as a main analog
stability during storage ([2]; presence of water in the solvent, FIG. 1 and FIG. 2): improved
reduction in purity of HMRef-αMan during storage ([2]; vial stored at 25°C or 50°C in the dark for 25 to 32 days, converted to 3 years at room temperature / 1 year at 50°C (FIG. 1, FIG. 2), DMSO/water with or without phosphate): suppressed by the presence of water in the solvent
